# Laboratory results from US20240368209A1, “GEMCITABINE ANTICANCER DERIVATIVE AND ANTICANCER PHARMACEUTICAL USE” (ASCENTAWITS PHARMACEUTICALS, LTD., priority 2021, published 2024).
# Key:
# [1] = Maximal tolerance dose (MTD) test; format: in vivo; conditions: mice
# Experimental: According to the research scheme in Table 14, mice were grouped and administered at the concentrations and dosage levels shown in Table 14. On the 1st to 5th day and the 14th to 19th day, intraperitoneal injection of a solvent control or compound H11 at different dosage levels was performed, with a dose volume of 10 mL/kg. Animals in Groups 1, 3, and 4 were put to death and autopsied on the 22nd day, and animals in Group 2 were put to death and autopsied on the 16th day.
# The evaluated parameters included cage-side observation, detailed clinical observation, and post-administration observation (approximately 1-2 hours after dosing), body weight and weight change, food intake, and gross pathology.
# [2] = Plasma stability in mouse plasma; format: in vitro ADME
# Experimental: The final concentration of organic solvents was 0.5%. The test was conducted in duplicate. • C.
# Samples were analyzed with LC-MS/MS. All calculations were conducted using Microsoft Excel.
# [3] = tested on: HuPrime pancreatic cancer xenograft model PA1222; assay: In vivo pharmacodynamic experiment in HuPrime pancreatic cancer PA1222 PDX model; conditions: for Tumor volume (x ± S): mean ± standard error
# [4] = Group 3, 240 mg/kg p.o. QD×21, Day 32
# [5] = Group 4, 160 mg/kg i.p. QD×5, 2 days off, 2 weeks off, QD×5, Day 32
# [6] = Group 5, 160 mg/kg i.v. Q2D×3 weeks, Day 32
structure (smiles),measurement,setting,value
CC(C)NP(=O)(OCc1ccc([N+](=O)[O-])c(Oc2ccc(-c3ccc(F)cc3)c(F)c2)c1)OCC1OC(C2N=CC(N)=NC2=O)C(F)(F)C1O (stereo not drawn) [Compound H11],Clinical symptoms,"[1]; 80, 160, 320 mg/kg/day i.p.",No abnormal compound-related clinical manifestation was observed
same,Impact on animal weight and food intake,"[1]; 80, 160, 320 mg/kg/day i.p.",No abnormal compound-related change in body weight or food intake was observed
same,Mortality of animals,"[1]; 80, 160, 320 mg/kg/day i.p., two rounds of 5 days",all experimental animals survived until the planned autopsy
same,dose at which enlargement of the spleen was visible (pathological examination),[1]; i.p.,≥ 160 mg/kg
same,dose group with change to white in the renal capsule (pathological examination),[1]; i.p.,320 mg/kg
same,maximal tolerance dose,[1]; intraperitoneal injection once a day for 5 consecutive days,320 mg/kg
same,t1/2 (min),[2],∞
same,Remaining percentage (%),"[2]; 0 min, 5 μM, 37° C.",100.00%
same,plasma stability (in words),"[2]; 37° C., at least 2 hours",stable and has no significant metabolism
same,Remaining percentage (%),[2]; 15 min,102.19%
same,Remaining percentage (%),[2]; 30 min,96.83%
same,Remaining percentage (%),[2]; 60 min,104.70%
same,Remaining percentage (%),[2]; 120 min,97.53%
same,weight loss and tolerability during treatment,"[3]; Group 3, 240 mg/kg p.o. QD×21","did not show any significant weight loss, and tolerated well"
same,Relative tumor volume (x ± S),[3]; [4],0.47 ± 0.27
same,T/C (%),[3]; [4],7.65%
same,TGI (%),[3]; [4],92.35%
same,complete tumor inhibition rate,[3]; [4],20%
same,Tumor volume (x ± S),[3]; [4],44.61 ± 22.14
same,Average weight (g) of mice,"[3]; Group 3, 240 mg/kg p.o., Day 0",21.8 g
same,Average weight (g) of mice,"[3]; Group 3, 240 mg/kg p.o., Day 1",21.5 g
same,Average weight (g) of mice,"[3]; Group 3, 240 mg/kg p.o., Day 2",21.5 g
same,Average weight (g) of mice,"[3]; Group 3, 240 mg/kg p.o., Day 3",21.6 g
same,Average weight (g) of mice,"[3]; Group 3, 240 mg/kg p.o., Day 4",21.9 g
same,Average weight (g) of mice,"[3]; Group 3, 240 mg/kg p.o., Day 5",22.3 g
same,Average weight (g) of mice,"[3]; Group 3, 240 mg/kg p.o., Day 6",21.7 g
same,Average weight (g) of mice,"[3]; Group 3, 240 mg/kg p.o., Day 7",21.6 g
same,Average weight (g) of mice,"[3]; Group 3, 240 mg/kg p.o., Day 8",21.7 g
same,Average weight (g) of mice,"[3]; Group 3, 240 mg/kg p.o., Day 9",22.5 g
same,Average weight (g) of mice,"[3]; Group 3, 240 mg/kg p.o., Day 10",21.6 g
same,Average weight (g) of mice,"[3]; Group 3, 240 mg/kg p.o., Day 11",21.9 g
same,Average weight (g) of mice,"[3]; Group 3, 240 mg/kg p.o., Day 12",22.0 g
same,Average weight (g) of mice,"[3]; Group 3, 240 mg/kg p.o., Day 13",21.9 g
same,Average weight (g) of mice,"[3]; Group 3, 240 mg/kg p.o., Day 14",21.6 g
same,Average weight (g) of mice,"[3]; Group 3, 240 mg/kg p.o., Day 15",21.6 g
same,Average weight (g) of mice,"[3]; Group 3, 240 mg/kg p.o., Day 16",22.1 g
same,Average weight (g) of mice,"[3]; Group 3, 240 mg/kg p.o., Day 17",21.8 g
same,Average weight (g) of mice,"[3]; Group 3, 240 mg/kg p.o., Day 18",21.9 g
same,Average weight (g) of mice,"[3]; Group 3, 240 mg/kg p.o., Day 19",21.8 g
same,Average weight (g) of mice,"[3]; Group 3, 240 mg/kg p.o., Day 20",21.9 g
same,Average weight (g) of mice,"[3]; Group 3, 240 mg/kg p.o., Day 21",21.8 g
same,Average weight (g) of mice,"[3]; Group 3, 240 mg/kg p.o., Day 25",22.6 g
same,Average weight (g) of mice,"[3]; Group 3, 240 mg/kg p.o., Day 28",22.4 g
same,Average weight (g) of mice,"[3]; Group 3, 240 mg/kg p.o., Day 32",22.9 g
same,Tumor volume (mm^3) (x ± S),"[3]; Group 3, 240 mg/kg p.o., day 0",102.83 mm^3
same,Tumor volume (mm^3) (x ± S),"[3]; Group 3, 240 mg/kg p.o., day 4",123.16 mm^3
same,Tumor volume (mm^3) (x ± S),"[3]; Group 3, 240 mg/kg p.o., day 7",90.07 mm^3
same,Tumor volume (mm^3) (x ± S),"[3]; Group 3, 240 mg/kg p.o., day 11",54.28 mm^3
same,Tumor volume (mm^3) (x ± S),"[3]; Group 3, 240 mg/kg p.o., day 14",41.73 mm^3
same,Tumor volume (mm^3) (x ± S),"[3]; Group 3, 240 mg/kg p.o., day 18",34.60 mm^3
same,Tumor volume (mm^3) (x ± S),"[3]; Group 3, 240 mg/kg p.o., day 21",29.52 mm^3
same,Tumor volume (mm^3) (x ± S),"[3]; Group 3, 240 mg/kg p.o., day 25",30.71 mm^3
same,Tumor volume (mm^3) (x ± S),"[3]; Group 3, 240 mg/kg p.o., day 28",30.59 mm^3
same,Tumor volume (mm^3) (x ± S),"[3]; Group 3, 240 mg/kg p.o., day 32",44.61 mm^3
same,weight loss and tolerability during treatment,"[3]; Group 4, 160 mg/kg i.p. QD×5, 2 days off, 2 weeks off, QD×5","did not show any significant weight loss, and tolerated well"
same,Relative tumor volume (x ± S),[3]; [5],2.01 ± 0.41
same,T/C (%),[3]; [5],32.38%
same,TGI (%),[3]; [5],67.62%
same,Tumor volume (x ± S),[3]; [5],202.58 ± 45.40
same,Average weight (g) of mice,"[3]; Group 4, 160 mg/kg i.p., Day 0",21.4 g
same,Average weight (g) of mice,"[3]; Group 4, 160 mg/kg i.p., Day 1",22.0 g
same,Average weight (g) of mice,"[3]; Group 4, 160 mg/kg i.p., Day 2",21.5 g
same,Average weight (g) of mice,"[3]; Group 4, 160 mg/kg i.p., Day 3",22.0 g
same,Average weight (g) of mice,"[3]; Group 4, 160 mg/kg i.p., Day 4",21.7 g
same,Average weight (g) of mice,"[3]; Group 4, 160 mg/kg i.p., Day 7",22.3 g
same,Average weight (g) of mice,"[3]; Group 4, 160 mg/kg i.p., Day 11",22.5 g
same,Average weight (g) of mice,"[3]; Group 4, 160 mg/kg i.p., Day 14",22.9 g
same,Average weight (g) of mice,"[3]; Group 4, 160 mg/kg i.p., Day 18",22.7 g
same,Average weight (g) of mice,"[3]; Group 4, 160 mg/kg i.p., Day 21",22.9 g
same,Average weight (g) of mice,"[3]; Group 4, 160 mg/kg i.p., Day 22",22.6 g
same,Average weight (g) of mice,"[3]; Group 4, 160 mg/kg i.p., Day 23",22.5 g
same,Average weight (g) of mice,"[3]; Group 4, 160 mg/kg i.p., Day 24",22.6 g
same,Average weight (g) of mice,"[3]; Group 4, 160 mg/kg i.p., Day 25",22.5 g
same,Average weight (g) of mice,"[3]; Group 4, 160 mg/kg i.p., Day 28",22.6 g
same,Average weight (g) of mice,"[3]; Group 4, 160 mg/kg i.p., Day 32",23.3 g
same,Tumor volume (mm^3) (x ± S),"[3]; Group 4, 160 mg/kg i.p., day 0",101.91 mm^3
same,Tumor volume (mm^3) (x ± S),"[3]; Group 4, 160 mg/kg i.p., day 4",105.94 mm^3
same,Tumor volume (mm^3) (x ± S),"[3]; Group 4, 160 mg/kg i.p., day 7",96.63 mm^3
same,Tumor volume (mm^3) (x ± S),"[3]; Group 4, 160 mg/kg i.p., day 11",116.07 mm^3
same,Tumor volume (mm^3) (x ± S),"[3]; Group 4, 160 mg/kg i.p., day 14",139.61 mm^3
same,Tumor volume (mm^3) (x ± S),"[3]; Group 4, 160 mg/kg i.p., day 18",153.86 mm^3
same,Tumor volume (mm^3) (x ± S),"[3]; Group 4, 160 mg/kg i.p., day 21",188.69 mm^3
same,Tumor volume (mm^3) (x ± S),"[3]; Group 4, 160 mg/kg i.p., day 25",198.68 mm^3
same,Tumor volume (mm^3) (x ± S),"[3]; Group 4, 160 mg/kg i.p., day 28",195.90 mm^3
same,Tumor volume (mm^3) (x ± S),"[3]; Group 4, 160 mg/kg i.p., day 32",202.58 mm^3
same,weight loss and tolerability during treatment,"[3]; Group 5, 160 mg/kg i.v. Q2D×3 weeks","did not show any significant weight loss, and tolerated well"
same,Relative tumor volume (x ± S),[3]; [6],0.00 ± 0.00
same,T/C (%),[3]; [6],0.00%
same,TGI (%),[3]; [6],100%
same,complete tumor inhibition rate,[3]; [6],100%
same,Tumor volume (x ± S),[3]; [6],0.00 ± 0.00
same,Average weight (g) of mice,"[3]; Group 5, 160 mg/kg i.v., Day 0",21.6 g
same,Average weight (g) of mice,"[3]; Group 5, 160 mg/kg i.v., Day 2",21.8 g
same,Average weight (g) of mice,"[3]; Group 5, 160 mg/kg i.v., Day 4",21.4 g
same,Average weight (g) of mice,"[3]; Group 5, 160 mg/kg i.v., Day 7",20.9 g
same,Average weight (g) of mice,"[3]; Group 5, 160 mg/kg i.v., Day 8",21.6 g
same,Average weight (g) of mice,"[3]; Group 5, 160 mg/kg i.v., Day 10",21.3 g
same,Average weight (g) of mice,"[3]; Group 5, 160 mg/kg i.v., Day 11",22.1 g
same,Average weight (g) of mice,"[3]; Group 5, 160 mg/kg i.v., Day 12",22.2 g
same,Average weight (g) of mice,"[3]; Group 5, 160 mg/kg i.v., Day 14",22.0 g
same,Average weight (g) of mice,"[3]; Group 5, 160 mg/kg i.v., Day 16",22.3 g
same,Average weight (g) of mice,"[3]; Group 5, 160 mg/kg i.v., Day 18",22.1 g
same,Average weight (g) of mice,"[3]; Group 5, 160 mg/kg i.v., Day 20",22.1 g
same,Average weight (g) of mice,"[3]; Group 5, 160 mg/kg i.v., Day 21",22.3 g
same,Average weight (g) of mice,"[3]; Group 5, 160 mg/kg i.v., Day 25",22.6 g
same,Average weight (g) of mice,"[3]; Group 5, 160 mg/kg i.v., Day 28",22.5 g
same,Average weight (g) of mice,"[3]; Group 5, 160 mg/kg i.v., Day 32",23.2 g
same,Tumor volume (mm^3) (x ± S),"[3]; Group 5, 160 mg/kg i.v., day 0",102.11 mm^3
same,Tumor volume (mm^3) (x ± S),"[3]; Group 5, 160 mg/kg i.v., day 4",98.46 mm^3
same,Tumor volume (mm^3) (x ± S),"[3]; Group 5, 160 mg/kg i.v., day 7",79.97 mm^3
same,Tumor volume (mm^3) (x ± S),"[3]; Group 5, 160 mg/kg i.v., day 11",40.67 mm^3
same,Tumor volume (mm^3) (x ± S),"[3]; Group 5, 160 mg/kg i.v., day 14",22.37 mm^3
same,Tumor volume (mm^3) (x ± S),"[3]; Group 5, 160 mg/kg i.v., day 18",11.52 mm^3
same,Tumor volume (mm^3) (x ± S),"[3]; Group 5, 160 mg/kg i.v., day 21",11.56 mm^3
same,Tumor volume (mm^3) (x ± S),"[3]; Group 5, 160 mg/kg i.v., day 25",6.73 mm^3
same,Tumor volume (mm^3) (x ± S),"[3]; Group 5, 160 mg/kg i.v., day 28",0.00 mm^3
same,Tumor volume (mm^3) (x ± S),"[3]; Group 5, 160 mg/kg i.v., day 32",0.00 mm^3
